Results: patent US12653797B2, “Tablet and method for manufacturing same” (AYUMI PHARMACEUTICAL CORPORATION, priority 2020, dated 2026)

Assay: Measurement of the particle diameter of the acetaminophen active pharmaceutical ingredients (dry laser diffraction)
Format: physicochemical
Details: dispersion air pressure 0.5 bar
From the text: There may be some differences between manufacturing lots. In addition, the volume-average particle diameter (MV) of the present acetaminophen active pharmaceutical ingredient can be in the range from 100 to 350 μm and may be in the range from 120 to 330 μm. There may be some differences between manufacturing lots. The particle size distribution in the present invention is acquired by evaluation of the volumetric distribution using dry particle diameter measurement by a laser diffraction method (Laser Micron Sizer LMS-2000e (Seishin Enterprise Co., Ltd.)). D50 is the particle diameter at the 50% accumulation of the individual volumes from the small diameter side of the particle size distribution, and is referred to as the median particle diameter. (3) Measurement of the Particle Diameter of the Acetaminophen Active Pharmaceutical Ingredients The acetaminophen active pharmaceutical ingredients were subjected to dry measurement of the particle diameter by a laser diffraction method. A Laser Micron Sizer LMS-2000e (Seishin Enterprise Co., Ltd.) was used for measurement of the particle size distribution. The measurement was carried out at a dispersion compressed air pressure of 0.5 bar.
With `CC(=O)Nc1ccc(O)cc1` [AA API c, acetaminophen] the D10 was 27 μm, the “D50 (median particle diameter)” value was 147 μm and the D90 was 357 μm. For the same compound, the “MV (volume-average particle diameter)” value was 173 μm.
For `CC(=O)Nc1ccc(O)cc1` [AA API e, acetaminophen], the D10 was 5.7 μm, the “D50 (median particle diameter)” value was 26 μm and the D90 was 116 μm. For the same compound, the “MV (volume-average particle diameter)” value was 46 μm.
For `CC(=O)Nc1ccc(O)cc1` [AA API d, acetaminophen], the D10 was 75 μm, the “D50 (median particle diameter)” value was 419 μm and the D90 was 855 μm. For the same compound, the “MV (volume-average particle diameter)” value was 452 μm.
In the case of `CC(=O)Nc1ccc(O)cc1` [AA API a, acetaminophen], the D10 was 73 μm, the “D50 (median particle diameter)” value was 224 μm and the D90 was 404 μm. The “MV (volume-average particle diameter)” value was 234 μm.
In the case of `CC(=O)Nc1ccc(O)cc1` [AA API g, acetaminophen], the D10 was 125 μm, the “D50 (median particle diameter)” value was 288 μm and the D90 was 516 μm. The “MV (volume-average particle diameter)” value was 306 μm.
With `CC(=O)Nc1ccc(O)cc1` [AA API f, acetaminophen] the D10 was 42 μm, the “D50 (median particle diameter)” value was 202 μm and the D90 was 426 μm. For the same compound, the “MV (volume-average particle diameter)” value was 222 μm.
In the case of `CC(=O)Nc1ccc(O)cc1` [AA API b, acetaminophen], the D10 was 62 μm, the “D50 (median particle diameter)” value was 191 μm and the D90 was 353 μm. The “MV (volume-average particle diameter)” value was 202 μm.
